# Assay results: publication PMC8050276, “Estradiol analogs attenuate autophagy, cell migration and invasion by direct and selective inhibition of TRPML1, independent of estrogen receptors” (Scientific Reports, 2021)
# Key:
# [1] = tested on: TRPC3, 4, 5, 6, and 7; TRPM2, 3, and 8; TRPV1, 2, 3, and 4; assay: Fluo-4 counter screen against other TRP channels stably expressed in HEK293; format: cell-based; conditions: most channels; activated with known ligands
# [2] = target: T1, hTRPML3 (Homo sapiens, UniProt Q8TDD5); assay: Whole-cell patch-clamp, tetracycline-inducible HEK293 hTRPML3; format: cell-based; conditions: 30 µM ML-SA1, pH 7.4
# T1 construct: host or cells: HEK293, FLP-in-Tet-On, tetracycline-induced
# T1 sequence (Q8TDD5 1-553): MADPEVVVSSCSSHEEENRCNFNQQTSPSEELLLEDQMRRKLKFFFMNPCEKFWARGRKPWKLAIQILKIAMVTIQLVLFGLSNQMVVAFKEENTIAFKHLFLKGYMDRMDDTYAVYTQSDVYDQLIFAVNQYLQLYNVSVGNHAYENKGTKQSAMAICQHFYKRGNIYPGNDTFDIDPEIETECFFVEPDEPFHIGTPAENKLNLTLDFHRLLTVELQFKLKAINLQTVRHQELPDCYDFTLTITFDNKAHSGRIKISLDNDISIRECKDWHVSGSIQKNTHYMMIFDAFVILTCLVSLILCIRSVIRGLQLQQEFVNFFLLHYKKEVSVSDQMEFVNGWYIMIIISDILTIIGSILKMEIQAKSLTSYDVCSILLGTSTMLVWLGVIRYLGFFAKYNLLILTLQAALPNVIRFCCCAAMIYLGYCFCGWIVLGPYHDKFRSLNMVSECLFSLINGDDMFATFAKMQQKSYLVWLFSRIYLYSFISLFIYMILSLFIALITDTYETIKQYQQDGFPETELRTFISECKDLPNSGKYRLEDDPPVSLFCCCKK
# Procedure: (§1) For whole-cell patch-clamp experiments tetracycline-inducible hTRPML1L15/16A, L577/578A, hTRPML2 and TRPML3 HEK293 cell lines were used, generated by ICAGEN Inc. using the FLP-in-Tet-On system. Experiments were performed as described previously[20],[42]. In brief, cells were cultured on coverslips (Fisherbrand, Fisher Scientific) in complete DMEM medium with 10% FBS (Thermo Fisher). HEK293 cells expressing the desired channel protein were patch-clamped after overnight induction with tetracycline (1 µg/mL). […] The pipette solution contained (mM) 122 Cs‐methanosulfonate, 4 NaCl, 10 EGTA, 2 Na-ATP, 2 MgCl2 and 20 HEPES, pH 7.2 (with CsOH). The standard bath solution contained (mM) 153 NaCl, 5 KCl, 2 CaCl2, 1 MgCl2, 20 HEPES and 10 Glucose (pH 7.4 with NaOH). The low pH bath solution contained (mM) 150 Na-Gluconate, 5 KCl, 2 CaCl2, 1 MgCl2, 10 glucose, 10 HEPES and 10 MES (pH 4.6). Whole‐cell currents were recorded using a Multiclamp 700B amplifier (Molecular Devices) with low‐pass filtering at 3 kHz. The currents were digitized at a sampling frequency of 10 kHz using BNC-2110 and PCI-6221 with NI-DAQmx (National Instruments) and stored directly to a hard drive. Current recording was done with WinWCP5.2.7 (University of Strathclyde, UK) software, and analysis was done with the help of a customized Igor pro program (WaveMetrics).
# [3] = target: T2, hTRPML1L15/16A, L577/578A (Homo sapiens, UniProt Q9GZU1, L15A/L16A); assay: Whole-cell patch-clamp, tetracycline-inducible HEK293 hTRPML1L15/16A, L577/578A; format: cell-based; conditions: 30 µM ML-SA1, pH 4.6; read-out: TRPML1 IC50, whole-cell patch-clamp
# T2 construct: host or cells: HEK293, FLP-in-Tet-On, tetracycline-induced
# T2 sequence (Q9GZU1 with tags, fused parts or gaps L15A/L16A): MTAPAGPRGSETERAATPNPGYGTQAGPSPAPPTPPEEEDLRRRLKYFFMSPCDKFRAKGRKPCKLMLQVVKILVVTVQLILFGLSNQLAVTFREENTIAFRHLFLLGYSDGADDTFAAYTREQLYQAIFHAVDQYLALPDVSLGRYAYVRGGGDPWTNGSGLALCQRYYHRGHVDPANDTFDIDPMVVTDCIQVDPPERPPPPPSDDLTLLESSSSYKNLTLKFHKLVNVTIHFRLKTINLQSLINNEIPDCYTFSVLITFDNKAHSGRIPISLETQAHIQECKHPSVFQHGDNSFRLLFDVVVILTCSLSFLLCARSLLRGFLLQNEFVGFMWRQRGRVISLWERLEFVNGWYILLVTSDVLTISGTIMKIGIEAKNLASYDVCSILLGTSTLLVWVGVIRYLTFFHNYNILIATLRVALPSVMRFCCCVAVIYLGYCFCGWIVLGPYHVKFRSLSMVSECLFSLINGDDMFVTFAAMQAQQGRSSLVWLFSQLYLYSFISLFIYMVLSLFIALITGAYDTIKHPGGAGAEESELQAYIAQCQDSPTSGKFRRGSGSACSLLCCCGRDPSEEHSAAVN
# Procedure: as §1
# [4] = tested on: MDA-MB-231 cells; assay: Wound healing/migration scratch assay; format: cell-based, human; conditions: various concentrations, o/n
# Procedure: Wound healing assay was performed using 12-well plates (Sarstedt) at full confluency. Cells were incubated overnight (serum-free), and a scratch was performed using a yellow pipet tip. Pictures were taken at 0 h and after over night (o/n) incubation using an inverted microscope (Leica DM IL LED) and using a microscope camera (Leica DFC 3000 G).
smiles,measurement,setting,value
"COc1ccc2c(c1)CC[C@@H]1[C@@H]2CC[C@]2(C)[C@@H](O)CC[C@@H]12 [EDME, 17β-estradiol methyl ether]",IC50 at other TRP channels,[1],no meaningful IC50s
same,"block of TRPML3, whole-cell patch-clamp",[2],no block
same,IC50,[3],220 nM
same,migration of MDA-MB-231 cells,[4],reduced significantly
